Measured values: ChEMBL document CHEMBL1201862, “PubChem BioAssay data set” (2004)
The source made the active and inactive calls.

Columns and labels:
[1] = target: T1, Long-chain-fatty-acid--AMP ligase FadD28 (Mycobacterium tuberculosis, UniProt P9WQ59); assay: Fluorescence polarization aasay to screen for inhibitors that compete for the binding of FadD28 to a bisubstrate Measured in Biochemical System Using Plate Reader - 2147-01_Inhibitor_Dose_CherryPick_Activity.; assay type: functional, Mycobacterium tuberculosis H37Rv
T1 sequence (P9WQ59 whole entry): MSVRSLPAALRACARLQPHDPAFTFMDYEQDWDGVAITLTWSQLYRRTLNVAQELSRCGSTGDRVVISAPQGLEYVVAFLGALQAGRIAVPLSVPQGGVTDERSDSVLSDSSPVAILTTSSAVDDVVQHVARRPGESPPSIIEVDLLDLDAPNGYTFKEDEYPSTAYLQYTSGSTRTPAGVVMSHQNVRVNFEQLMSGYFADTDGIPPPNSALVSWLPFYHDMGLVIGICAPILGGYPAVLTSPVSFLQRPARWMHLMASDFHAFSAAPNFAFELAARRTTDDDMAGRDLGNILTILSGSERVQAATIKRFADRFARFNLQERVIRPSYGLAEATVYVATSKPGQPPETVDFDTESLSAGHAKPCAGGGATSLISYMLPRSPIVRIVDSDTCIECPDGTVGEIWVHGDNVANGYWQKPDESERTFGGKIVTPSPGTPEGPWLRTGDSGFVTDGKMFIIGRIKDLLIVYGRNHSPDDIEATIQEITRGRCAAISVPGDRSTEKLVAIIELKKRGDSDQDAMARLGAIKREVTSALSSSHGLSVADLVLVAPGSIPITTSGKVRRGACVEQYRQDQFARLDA

[2] = inhibitors of intracellular T. cruzi replication, confirmation, NIH3T3 host cells, beta-gal luminescence (AID 2044); assay type: functional, cell-based;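 further: intracellular parasites grown in NIH/3T3 mouse fibroblasts as host cells; luminescent beta-galactosidase reporter signal from transgenic T. cruzi replicating inside host cells; inhibitors lower the luminescence signal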
[3] = growth suppression of PTEN-null colon cells, dose response, cell-based, HCT116 PTEN knockout (AID 1047); assay type: functional;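 further: HCT116 colon tumor cells with PTEN knocked out; cells exposed to compound for 60 hours before readout; potency for loss of cell viability measured by luminescence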
[4] = cytotoxicity toward NIH3T3 fibroblasts, dose response, counter-screen, cell-based, ATP luminescence, mouse fibroblasts (AID 2010); assay type: functional;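 further: cells exposed to compound for about 90 hours before reading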
[5] = growth suppression of beta-catenin-knockout colon cells, dose response, cell-based, HCT116, human colon tumor (AID 1045); assay type: functional;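 further: HCT116 colon tumor cells with beta catenin knocked out; cells exposed to compound for 60 hours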
[6] = target: Cytochrome P450 2C19 (Homo sapiens, UniProt P33261); assay: Cytochrome panel assay with activity outcomes. Panel member name: p450-cyp2c19 Compounds with AC50 equal or less than 10 uM are considered active; assay type: functional; conditions: read-out: AC50
Cytochrome P450 2C19, sequence (P33261 whole entry): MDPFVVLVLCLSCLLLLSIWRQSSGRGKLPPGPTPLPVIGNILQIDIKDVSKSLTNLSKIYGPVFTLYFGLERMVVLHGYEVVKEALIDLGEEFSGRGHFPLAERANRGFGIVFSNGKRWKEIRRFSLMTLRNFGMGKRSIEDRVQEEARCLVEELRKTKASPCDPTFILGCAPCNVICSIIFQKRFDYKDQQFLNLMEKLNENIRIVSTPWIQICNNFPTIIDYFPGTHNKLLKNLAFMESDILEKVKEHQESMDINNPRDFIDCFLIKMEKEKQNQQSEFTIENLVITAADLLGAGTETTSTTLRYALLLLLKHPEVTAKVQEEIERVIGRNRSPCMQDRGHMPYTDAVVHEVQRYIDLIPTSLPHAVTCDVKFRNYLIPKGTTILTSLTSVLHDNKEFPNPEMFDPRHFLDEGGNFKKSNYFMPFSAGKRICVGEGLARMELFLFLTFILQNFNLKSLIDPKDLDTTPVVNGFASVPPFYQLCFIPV

[7] = test system: INS1; assay: beta cell apoptosis inhibitors, cytokine rescue, dose response, luminescence, retest (AID 449756); assay type: functional, cell-based; conditions: Rattus norvegicus;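 further: cell death triggered by IL-1 beta plus TNF-alpha plus IFN-gamma mixture; protective hits raise ATP signal compared with cytokine alone wells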
[8] = HepG2 cell cytotoxicity, dose response, cytotoxicity control, ATP luminescence, cherry-pick, activator set 2 (AID 1053143); assay type: functional, cell-based
[9] = LGR2 antagonists, dose response, cell-based, HEK293, CRE-luciferase reporter, cherry pick, set 2 (AID 743343); assay type: functional;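 further: transfected cells were stimulated with diluted bursicon conditioned medium after compound addition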
[10] = MC4R antagonists, dose response, counter-screen for LGR2 antagonist project, cell-based, plate reader, cherry pick (AID 743444); assay type: functional;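 further: transfected HEK 293 cells stimulated with alpha-MSH peptide; potency of inhibitors of the alpha-MSH evoked signal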
[11] = P. falciparum late gametocyte killing, dose response, luminescence (AID 1117278); assay type: functional, cell-based;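 further: gametocytes exposed to compound for 24 hours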
[12] = Jurkat T cell cytotoxicity, dose response, cytotoxicity control for P. falciparum gametocyte viability project, luminescence (AID 1117277); assay type: functional, cell-based;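 further: potency reflects loss of cellular ATP meaning fewer viable cells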
[13] = target: T2, Galanin receptor type 3 (Homo sapiens, UniProt O60755); assay: Fluorescence-based cell-based primary high throughput dose response assay to identify antagonists of the Galanin Receptor 3 (GalR3).; assay type: functional
T2 sequence (O60755 whole entry): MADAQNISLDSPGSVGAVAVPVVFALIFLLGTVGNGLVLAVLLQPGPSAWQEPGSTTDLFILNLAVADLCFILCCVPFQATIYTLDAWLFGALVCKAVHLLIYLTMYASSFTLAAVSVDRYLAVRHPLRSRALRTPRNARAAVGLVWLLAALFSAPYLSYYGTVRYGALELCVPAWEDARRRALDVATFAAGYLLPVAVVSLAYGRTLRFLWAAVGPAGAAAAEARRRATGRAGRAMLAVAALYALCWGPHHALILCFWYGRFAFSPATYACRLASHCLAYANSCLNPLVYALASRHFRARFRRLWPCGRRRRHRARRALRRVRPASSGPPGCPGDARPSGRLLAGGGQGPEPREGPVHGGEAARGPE

[14] = cells; assay type: functional, cell-based; conditions: HEK-CNG
[15] = target: T3, Heat shock factor protein 1 (Mus musculus, UniProt P38532); assay: inhibition of MG132-induced HSE-luciferase signal, confirmation, cell-based, NIH3T3, luminescence, dose retest (AID 2382); assay type: functional;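 further: NIH3T3 fibroblasts with HSF1-driven luciferase reporter stressed by proteasome inhibitor MG132; luminescence from HSF1-driven luciferase expression after 8 hours of MG132 stress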
T3 sequence (P38532 whole entry): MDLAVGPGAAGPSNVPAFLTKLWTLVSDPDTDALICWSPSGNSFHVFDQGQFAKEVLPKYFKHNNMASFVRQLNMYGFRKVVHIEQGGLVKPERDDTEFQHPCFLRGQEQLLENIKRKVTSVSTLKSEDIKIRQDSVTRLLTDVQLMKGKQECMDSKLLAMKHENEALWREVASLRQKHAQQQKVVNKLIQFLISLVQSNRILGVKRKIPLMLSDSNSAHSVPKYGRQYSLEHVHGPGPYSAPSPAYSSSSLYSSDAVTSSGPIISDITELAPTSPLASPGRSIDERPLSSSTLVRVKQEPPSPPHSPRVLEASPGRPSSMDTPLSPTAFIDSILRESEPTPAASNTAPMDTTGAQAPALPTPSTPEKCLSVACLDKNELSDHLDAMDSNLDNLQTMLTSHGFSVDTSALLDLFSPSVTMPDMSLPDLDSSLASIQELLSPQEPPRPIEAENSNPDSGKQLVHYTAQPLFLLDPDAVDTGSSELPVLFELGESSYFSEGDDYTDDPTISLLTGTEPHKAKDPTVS

[16] = target: T4, Coagulation factor XII (Homo sapiens, UniProt P00748); assay type: functional;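 further: activated factor XIIa alpha cleaving a fluorogenic AMC peptide substrate; inhibitor potency from loss of enzyme activity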
T4 sequence (P00748 whole entry): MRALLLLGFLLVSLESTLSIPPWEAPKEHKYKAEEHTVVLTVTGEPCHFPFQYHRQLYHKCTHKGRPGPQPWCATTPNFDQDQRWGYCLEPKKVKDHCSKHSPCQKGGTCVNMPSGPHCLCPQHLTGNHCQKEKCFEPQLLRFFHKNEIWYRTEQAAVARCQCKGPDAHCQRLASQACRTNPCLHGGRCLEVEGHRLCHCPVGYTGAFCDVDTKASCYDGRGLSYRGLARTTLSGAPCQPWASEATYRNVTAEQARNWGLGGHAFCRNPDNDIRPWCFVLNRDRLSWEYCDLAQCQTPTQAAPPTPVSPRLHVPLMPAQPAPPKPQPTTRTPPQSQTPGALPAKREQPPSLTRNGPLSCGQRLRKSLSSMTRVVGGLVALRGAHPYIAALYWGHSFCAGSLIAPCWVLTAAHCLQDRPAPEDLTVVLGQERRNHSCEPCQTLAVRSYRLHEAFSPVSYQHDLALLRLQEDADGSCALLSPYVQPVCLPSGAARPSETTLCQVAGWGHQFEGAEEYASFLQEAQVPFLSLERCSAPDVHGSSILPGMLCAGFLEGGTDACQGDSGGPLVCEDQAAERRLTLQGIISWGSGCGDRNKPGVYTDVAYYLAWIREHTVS

[17] = THP-1 cell cytotoxicity, dose response, cytotoxicity control for Vif-APOBEC3G degradation inhibitor project, THP-1 cells (AID 1117359); assay type: functional; conditions: Human immunodeficiency virus 1, THP-1
[18] = T. cruzi growth inhibition in host cells, dose response, cell-based, plate reader, dry powder, set 2 (AID 652275); assay type: functional
[19] = target: Paired box protein Pax-8 (Homo sapiens, UniProt Q06710); assay: inhibitors of PAX8-driven TPO luciferase reporter, dose response, RMG-I cells, cherry-pick (AID 687027); assay type: functional, cell-based;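 further: luciferase reporter driven by Pax8 target thyroperoxidase promoter measured by SteadyGlo luminescence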
Paired box protein Pax-8, sequence (Q06710 whole entry): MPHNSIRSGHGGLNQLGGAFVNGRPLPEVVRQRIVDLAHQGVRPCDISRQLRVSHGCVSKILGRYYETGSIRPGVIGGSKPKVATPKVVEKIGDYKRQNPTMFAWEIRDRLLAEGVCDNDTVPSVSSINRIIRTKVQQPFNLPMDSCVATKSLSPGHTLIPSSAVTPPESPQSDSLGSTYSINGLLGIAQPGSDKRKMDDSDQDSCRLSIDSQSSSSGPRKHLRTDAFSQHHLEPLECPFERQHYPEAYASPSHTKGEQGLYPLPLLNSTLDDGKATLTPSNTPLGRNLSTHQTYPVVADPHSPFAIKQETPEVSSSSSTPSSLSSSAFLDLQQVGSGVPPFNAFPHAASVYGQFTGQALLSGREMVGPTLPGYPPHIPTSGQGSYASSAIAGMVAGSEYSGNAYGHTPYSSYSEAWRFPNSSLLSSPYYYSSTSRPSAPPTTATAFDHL

[20] = NIH:OVCAR-3 ovarian cancer cell cytotoxicity, dose response, PAX8 inhibitor project, plate reader, dry powder samples (AID 743044); assay type: functional, cell-based
[21] = cytotoxicity in OVCAR8 ovarian cancer cells, dose response, PAX8 project, cell-based, plate reader, dry powder samples (AID 743197); assay type: functional; conditions: OVCAR-8
[22] = A549 cell cytotoxicity, dose response, cytotoxicity control, plate reader, cherry-pick, antagonist series (AID 743412); assay type: functional, cell-based
[23] = HepG2 cell cytotoxicity, dose response, cytotoxicity control, plate reader, cherry-pick, antagonist series (AID 743416); assay type: functional, cell-based
[24] = P. falciparum Dd2 growth inhibitors, dose response, SYBR Green, cherry-picked samples (AID 1159567); assay type: functional, cell-based
[25] = HepG2 cell cytotoxicity, dose response, cytotoxicity control, cherry-picked samples (AID 1159577); assay type: functional, cell-based
[26] = P. falciparum 3D7-ScDHODH growth inhibitors, dose response, SYBR Green, dry powder samples (AID 1159570); assay type: functional, cell-based;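 further: parasite growth measured after 72 hours of compound exposure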
[27] = HepG2 cell cytotoxicity, dose response, cytotoxicity control, plate reader, dry powder samples (AID 1159569); assay type: functional, cell-based;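 further: inhibitor potency with signal falling toward the positive control level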
[28] = P. falciparum Dd2 growth inhibitors, dose response, SYBR Green, dry powder samples (AID 1159566); assay type: functional, cell-based;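 further: potency for growth inhibition with lower SYBR green DNA signal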
[29] = P. falciparum ATP4 D1247Y mutant growth inhibitors, dose response, NITD609-resistant line, SYBR Green, dry powder (AID 1159571); assay type: functional, cell-based;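 further: parasites synchronized at ring stage by sorbitol before testing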

## CCCCCCSC1=C(C#N)C(=O)NC2(CCCCC2)S1
[1]
  AC50: > 100 µM (inactive)

## O=C(/C(=C/c1ccc(Cl)cc1)c1nc2ccccc2[nH]1)c1ccccc1
[2]
  EC50: 0.824 µM (active)
[3]
  EC50: 3.64 µM (active)
[4]
  EC50: > 60 µM (not active)
[5]
  EC50: 3.11 µM (active)
[6]
  AC50: 1.58 µM (inconclusive)
[7]
  AC50: 2.98 µM (active)
[8]
  AC50: 7.94 µM (active)

## COc1cccc(-c2ncc3ccccc3c2CO)c1
[1]
  AC50: 38 µM (active)

## COc1ccc(-c2cc(C(=O)N3CCOCC3)no2)cc1
[9]
  AC50: 10.4 µM (active)
[10]
  AC50: 8.26 µM (active)

## O=C1CC(=O)Nc2cc(S(=O)(=O)N3CCN(c4cccc(C(F)(F)F)c4)CC3)ccc2N1
[11]
  IC50: > 109 µM (inactive)
[12]
  IC50: > 83.3 µM (inactive)

## O=C1NC(=O)N(CCc2ccc(F)cc2)C(=O)/C1=C/NNC(=O)c1ccncc1
[13]
  IC50: > 29.9 µM (inactive)
[14]
  EC50: > 29.9 µM (inactive)

## Cc1ccc(NC(=O)Nc2ccc(F)c(Cl)c2)cc1
[8]
  AC50: 33.1 µM (active)

## COc1ccc(OC)c(C(=O)c2ccc(C(=O)O)cc2)c1
[15]
  EC50: > 195 µM (not active)
[11]
  IC50: > 109 µM (inactive)
[12]
  IC50: > 83.3 µM (inactive)

## COc1ccc(OC)c(NC(=O)CC2C(=O)NCCN2C(=O)Nc2cccc(Cl)c2)c1 (centres undefined)
[16]
  IC50: > 50 µM (inactive)
[17]
  CC50: > 40 µM (active)

## C[C@@H]1CCCCO[C@H](CN(C)Cc2ccc(Cl)c(Cl)c2)[C@@H](C)CN([C@H](C)CO)C(=O)c2cc(N(C)C)ccc2O1
[18]
  AC50: 2.73 µM (active)

## O=C1CC2=CC=CC(=O)C(=O)C2=C(O)O1
[17]
  CC50: > 40 µM (active)

## C[C@@H]1CN([C@H](C)CO)C(=O)c2cc(NC(=O)Nc3ccc(C(F)(F)F)cc3)ccc2O[C@@H](C)CCCCO[C@@H]1CN(C)C(=O)c1ccccc1
[19]
  AC50: 5.42 µM (active)
[20]
  AC50: 7.17 µM (active)
[21]
  AC50: > 70 µM (inactive)

## N#Cc1cccc(-c2ccc([C@@H]3[C@H](CO)N4CCCCN(C(=O)Nc5cccc(F)c5)C[C@@H]34)cc2)c1
[22]
  AC50: 16.7 µM (active)
[23]
  AC50: > 24 µM (inactive)
[9]
  AC50: 40.6 µM (active)
[10]
  AC50: 47.2 µM (active)
[24]
  AC50: 2.18 µM (active)
[25]
  AC50: 7.5 µM (active)

## CC(C)N1CC2(CN(Cc3ccc(F)cc3)C2)Oc2c(NC(=O)c3ccncc3)cccc2C1=O
[18]
  AC50: 0.876 µM (active)

## COCCn1c(C)cc(/C=N/NC(=O)c2cc3ccccc3cc2O)c1C
[1]
  AC50: 17.4 µM (active)

## Cn1/c(=N\C(=O)c2ccco2)sc2cccc(F)c21
[8]
  AC50: 25.3 µM (active)

## C[C@@H]1CN([C@@H](C)CO)S(=O)(=O)c2ccc(C#Cc3ccccc3)cc2O[C@H]1CN(C)C(=O)C1CC1
[24]
  AC50: 4.38 µM (active)
[25]
  AC50: > 39 µM (inactive)

## COc1ccc(C#Cc2ccc3c(c2)[C@H]2[C@H](CCN2Cc2nccs2)[C@@H](CO)N3)cc1
[26]
  AC50: 3.44 µM (active)
[27]
  AC50: 74.7 µM (active)
[24]
  AC50: 1.9 µM (active)
[28]
  AC50: 2.06 µM (active)
[29]
  AC50: 2.52 µM (active)

## OC[C@@H]1[C@H](c2ccc(C#Cc3ccccc3F)cc2)[C@H]2CN(Cc3cncnc3)CCCCN12
[24]
  AC50: 3.54 µM (active)
[25]
  AC50: 10.8 µM (active)

## C[C@H](CO)N1C[C@H](C)[C@@H](CN(C)C(=O)Nc2ccc3c(c2)OCO3)Oc2ccc(NC(=O)Nc3ccc(C(F)(F)F)cc3)cc2CC1=O
[26]
  AC50: 0.406 µM (active)
[27]
  AC50: > 100 µM (inactive)
[24]
  AC50: 0.748 µM (active)
[28]
  AC50: 0.276 µM (active)
[29]
  AC50: 0.238 µM (active)

## COc1ccc(C#Cc2ccc3c(c2)[C@H]2[C@H](CCN2Cc2nccs2)[C@H](CO)N3)cc1
[26]
  AC50: 2.95 µM (active)
[27]
  AC50: 59.9 µM (active)
[24]
  AC50: 2.09 µM (active)
[28]
  AC50: 1.76 µM (active)
[29]
  AC50: 1.87 µM (active)
